Consider 46 compounds from patent US10219516B2, “Molecules having pesticidal utility, and intermediates, compositions, and processes, related thereto” (priority 2015, dated 2019).

The first data set concerns Beet Armyworm (Spodoptera exigua, LAPHEG). The experiment in a line: Bioassay on Beet Armyworm (BAW), 128-well diet tray assay. The conditions noted are these: Beet Armyworm, 128-well diet tray assay, read-out: BAW rating. It counts as in vivo. The essentials:
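Diet tray, 8 wells/compound; 50 μg/cm^2 applied to diet surface (90:10 acetone-water), dried. 1–5 L2 larvae/well; 25° C., 14:10 L:D, 5–7 d. Read-out: % mortality, mean of 8 wells.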
On to `CN(C(=O)c1cc(NC(=O)[C@H]2[C@H](c3ccc(F)c(Cl)c3)C2(Cl)Cl)ccc1Cl)c1ccc(F)cc1` (relative stereo) [PF5, trans-2-Chloro-5-(2,2-dichloro-3-(3-chloro-4-fluorophenyl)cyclopropane-1-carboxamido)-N-(4-fluorophenyl)-N-methylbenzamide], for which the pest or weed control at 50 µg/cm2 is 50 to 100%.

Still in this data set, the particulars now being: Species BAW (Beet Armyworm), read-out: BAW (Biological Results, rating).
For the compound `O=C(Nc1ccc(F)cc1)c1cccc(NC(=O)[C@H]2[C@H](c3cc(Cl)cc(Cl)c3)C2(Cl)Cl)c1F` (relative stereo) [F15, trans-3-(2,2-Dichloro-3-(3,5-dichlorophenyl)cyclopropane-1-carboxamido)-2-fluoro-N-(4-fluorophenyl)benzamide], the pest or weed control at 50 µg/cm2 fell in the range of 50 to 100%.

A further data set has as its system Cabbage Looper (Trichoplusia ni, TRIPNI). Description: Bioassay on Cabbage Looper (CL), 128-well diet tray assay. The conditions noted are these: Trichoplusia ni; Cabbage Looper, 128-well diet tray assay; read-out: CL rating. Type of data set: in vivo. The essentials:
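Percent mortality, averaged across eight replicate wells, was scored after five to seven days at 25° C. under a 14:10 light-dark cycle. Each well held one to five second instar larvae on artificial diet treated at 50 μg/cm^2 with compound from 90:10 acetone-water, allowed to dry before infestation.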
For `CN(C(=O)c1cc(NC(=O)[C@H]2[C@H](c3ccc(F)c(Cl)c3)C2(Cl)Cl)ccc1Cl)c1ccc(F)cc1` (relative stereo) [PF5, trans-2-Chloro-5-(2,2-dichloro-3-(3-chloro-4-fluorophenyl)cyclopropane-1-carboxamido)-N-(4-fluorophenyl)-N-methylbenzamide], the pest or weed control at 50 µg/cm2 is 50 to 100%.

Still in this data set, the particulars now being: Trichoplusia ni; Species CL (Cabbage Looper); read-out: CL (Biological Results, rating).
Take `O=C(Nc1ccc(F)cc1)c1cccc(NC(=O)[C@H]2[C@H](c3cc(Cl)cc(Cl)c3)C2(Cl)Cl)c1F` (relative stereo) [F15, trans-3-(2,2-Dichloro-3-(3,5-dichlorophenyl)cyclopropane-1-carboxamido)-2-fluoro-N-(4-fluorophenyl)benzamide]: the pest or weed control at 50 µg/cm2 was in the range of 50 to 100%.

The test system of a further data set is Green Peach Aphid (Myzus persicae, MYZUPE). The experiment in a line: Bioassay on Green Peach Aphid (GPA), foliar spray on infested cabbage seedlings. Type of data set: in vivo. The note with it: 72 h, Green Peach Aphid, foliar spray on cabbage seedlings, read-out: GPA rating. In outline:
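Cabbage seedlings (2-3 true leaves) infested with 20-50 wingless adult and nymph aphids one day before treatment; sprayed to runoff at 200 ppm in 0.025% Tween 20 water with 20% acetone/methanol, four pots per treatment. Held three days at about 25° C; live aphids counted, % control by Abbott's correction versus solvent check.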
On to `CN(C(=O)c1cc(NC(=O)[C@H]2[C@H](c3ccc(F)c(Cl)c3)C2(Cl)Cl)ccc1Cl)c1ccc(F)cc1` (relative stereo) [PF5, trans-2-Chloro-5-(2,2-dichloro-3-(3-chloro-4-fluorophenyl)cyclopropane-1-carboxamido)-N-(4-fluorophenyl)-N-methylbenzamide], for which the pest or weed control at 200 µg/mL lay within 80 to 100%.

Still in this data set, the particulars now being: foliar, 72 h, Species GPA (Green Peach Aphid), read-out: GPA (Biological Results, rating).
For the compound `O=C(Nc1ccc(F)cc1)c1cccc(NC(=O)[C@H]2[C@H](c3cc(Cl)cc(Cl)c3)C2(Cl)Cl)c1F` (relative stereo) [F15, trans-3-(2,2-Dichloro-3-(3,5-dichlorophenyl)cyclopropane-1-carboxamido)-2-fluoro-N-(4-fluorophenyl)benzamide], the pest or weed control at 200 µg/mL fell in the range of 0 to 80%.

Another data set concerns Yellow Fever Mosquito (Aedes aegypti, AEDSAE). Description: Bioassay on Yellow Fever Mosquito (YFM), 96-well plate larval assay. Type of data set: in vivo. The note with it: Species YFM (Yellow Fever Mosquito). In outline:
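Aedes aegypti larvae (about 1 day old) in liver-powder water were added to plates dispensed from DMSO master plates (4000 ppm stock) diluted with 90:10 water/acetone; six replicate plates per master. Lidded plates were held at room temperature for 3 days, then each well was scored for mortality.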
For `O=C(Nc1ccc(F)cc1)c1cccc(NC(=O)[C@H]2[C@H](c3cc(Cl)cc(Cl)c3)C2(Cl)Cl)c1F` (relative stereo) [F15, trans-3-(2,2-Dichloro-3-(3,5-dichlorophenyl)cyclopropane-1-carboxamido)-2-fluoro-N-(4-fluorophenyl)benzamide], the “YFM (Biological Results, rating)” value was “A (80-100)”.

The same data set, now with this note: Yellow Fever Mosquito, 96-well plate larval assay.
Regarding `CN(C(=O)c1cc(NC(=O)[C@H]2[C@H](c3ccc(F)c(Cl)c3)C2(Cl)Cl)ccc1Cl)c1ccc(F)cc1` (relative stereo) [PF5, trans-2-Chloro-5-(2,2-dichloro-3-(3-chloro-4-fluorophenyl)cyclopropane-1-carboxamido)-N-(4-fluorophenyl)-N-methylbenzamide], the YFM rating entry was “A (80-100)”.

Test system in the next data set: not given
Assay: not given
Conditions: not given
Turning to `CCOc1ccc(C2C(C(=O)O)C2(Cl)Cl)cc1` (stereo not shown), the melting point (as a rule, the temperature of the solid-liquid transition) lay within 129 to 130 °C.

`Nc1ccc(OC(F)(F)F)c(C(=O)Nc2ccc(F)cc2)c1` came in with a melting point of 115 to 117 °C.

Turning to `O=C(O)C1C(c2ccc(F)c(Cl)c2)C1(Cl)Cl` (stereo not shown) [C420], the melting point is 119 to 121 °C.

Compound `O=C(O)C1C(c2cc(F)c(Br)c(F)c2)C1(Cl)Cl` (stereo not shown) had a melting point of 178.3 to 188.6 °C.

As to `N#Cc1cc(Cl)cc(C2C(C(=O)O)C2(Cl)Cl)c1` (stereo not shown), the melting point lay within 173 to 175 °C.

Consider `Cc1ccc(C(=O)Nc2ccc(F)cc2)cc1[N+](=O)[O-]`, for which the melting point was 136 to 138 °C.

`O=C(O)c1cc(NC(=O)C2C(c3cc(Cl)cc(Cl)c3)C2(Cl)Cl)c(Cl)cc1Cl` (stereo not shown) came in with a melting point of 263 to 266 °C.

For the compound `O=C(O)C1C(c2cc(Cl)c(Cl)cc2Cl)C1(Cl)Cl` (stereo not shown), the melting point is 189 to 192 °C.

On to `C=Cc1ccc([N+](=O)[O-])cc1C(=O)Nc1ccc(F)cc1`, for which the melting point is 158 to 160 °C.

`Cc1ccc([N+](=O)[O-])cc1N(C)C(=O)OC(C)(C)C` had a melting point of 57 to 60 °C.

For the compound `O=C(Nc1ccc(F)cc1)c1cccc([N+](=O)[O-])n1`, the melting point is 169 to 170 °C.

The compound `Nc1ccc(Cl)c(C(=O)Nc2ccc(-n3cccn3)cc2)c1` gave a melting point of 50 to 81 °C.

As for `O=C(O)C1C(c2cccc(C(F)(F)F)c2)C1(Cl)Cl` (stereo not shown), the melting point lay within 86 to 88 °C.

Regarding `Nc1ccc(Cl)c(C(=O)Nc2ccc(-c3ncco3)cc2)c1`, the melting point is 227 °C (dec.).

Regarding `COc1ccc(C2C(c3cc(F)c(Br)c(F)c3)C2(Cl)Cl)cc1` (stereo not shown), the melting point fell in the range of 104 to 109.3 °C.

Turning to `O=C(O)C1C(c2ccc(C(F)(F)C(F)(F)F)cc2)C1(Cl)Cl` (stereo not shown), the melting point was in the range of 116 to 118 °C.

The compound `Cc1cc(NC(=O)OC(C)(C)C)ccc1NC(=O)c1cccc(N)c1` returned a melting point of 143 to 161 °C.

As to `O=C(Nc1ccc(F)c(C(F)(F)F)c1)c1cc([N+](=O)[O-])ccc1Cl`, the melting point lay in the range of 192 to 202 °C.

The compound `O=C(Nc1ccc(F)cc1)c1cc(Cl)cc([N+](=O)[O-])c1` displayed a melting point of 209 to 210 °C.

In the case of `CCc1ccc(N)cc1C(=O)Nc1ccc(F)cc1`, the melting point lay in the range of 129 to 131 °C.

In turn, `CC(C)(C)OC(=O)N(C(=O)OC(C)(C)C)c1c(N)cc(F)cc1F` had a melting point of 102 to 107 °C.

The compound `O=C(O)C1C(c2ccc(OC(F)(F)F)c(Cl)c2)C1(Cl)Cl` (stereo not shown) yielded a melting point of 134 to 136 °C.

`O=C(O)C1C(c2cc(C(F)(F)F)cc(C(F)(F)F)c2)C1(Cl)Cl` (stereo not shown): the melting point fell in the range of 112 to 114 °C.

In the case of `COc1c(Cl)cc(C2C(C(=O)Nc3ccc(Cl)c(C(=O)O)c3)C2(Cl)Cl)cc1Cl` (stereo not shown), the melting point lay within 227 to 231 °C.

Turning to `O=C(O)c1cc(NC(=O)C2C(c3cc(Cl)cc(Cl)c3)C2(Cl)Cl)cc(Cl)c1Cl` (stereo not shown), the melting point was 231 to 235 °C.

`Nc1cc(Cl)cc(C(=O)Nc2ccc(F)cc2)c1` showed a melting point of 133 to 136 °C.

In turn, `COc1ccc(/C=C/c2ccc(Cl)c(Cl)c2)cc1` returned a melting point of 91 to 94 °C.

As to `Cc1ccc([N+](=O)[O-])cc1NC(=O)OC(C)(C)C`, the melting point lay within 137 to 145 °C.

`O=C(O)C1C(c2ccc(Cl)c(F)c2)C1(Cl)Cl` (stereo not shown) yielded a melting point of 140 to 142 °C.

With `Cc1cc(Cl)cc(C2C(C(=O)O)C2(Cl)Cl)c1` (stereo not shown), the melting point fell in the range of 124 to 126 °C.

Compound `Cc1c(Cl)cc(C2C(C(=O)O)C2(Cl)Cl)cc1Cl` (stereo not shown) had a melting point of 181 to 183 °C.

`Cc1cc([N+](=O)[O-])ccc1N(C)C(=O)OC(C)(C)C` showed a melting point of 98 to 101 °C.

Consider `COc1c(Cl)cc(C2C(C(=O)O)C2(Cl)Cl)cc1Cl` (stereo not shown), for which the melting point was in the range of 161 to 164 °C.

Take `O=C(Nc1ccc(-n2cccn2)cc1)c1cc([N+](=O)[O-])ccc1Cl`: the melting point was 200 to 205 °C.

`Cc1cc(NC(=O)OC(C)(C)C)ccc1NC(=O)c1cc([N+](=O)[O-])ccc1Cl` displayed a melting point of 195 to 200 °C.

As for `O=C(O)C1C(c2cc(Cl)cc(Br)c2)C1(Cl)Cl` (stereo not shown), the melting point was 161 to 163 °C.

`O=C(Nc1ccc(-c2ncco2)cc1)c1cc([N+](=O)[O-])ccc1Cl` yielded a melting point of 192 to 194 °C.

With `O=C(O)C1C(c2cc(Cl)cc(C(F)(F)F)c2)C1(Cl)Cl` (stereo not shown), the melting point was in the range of 113 to 115 °C.

Consider `O=C(Nc1ccc(F)cc1)c1cc([N+](=O)[O-])ccc1OC(F)(F)F`, for which the melting point was 175 to 177 °C.

`Cc1cc(C2C(C(=O)O)C2(Cl)Cl)cc(Cl)c1Cl` (stereo not shown) came in with a melting point of 157 to 159 °C.

As to `O=C(O)C1C(c2ccc(F)c(Cl)c2)C1(Cl)Cl` (stereo not shown) [C16], the melting point lay within 121 to 123 °C.

For the compound `O=C(O)C1C(c2cc(Br)cc(Br)c2)C1(Cl)Cl` (stereo not shown), the melting point was 157 to 159 °C.

With `O=C(O)C1C(c2cc(F)cc(Cl)c2)C1(Cl)Cl` (stereo not shown), the melting point fell in the range of 138 to 140 °C.

Compound `CC(C)(C)OC(=O)N(C(=O)OC(C)(C)C)c1ccc(F)cc1N` registered a melting point of 104 to 115 °C.
